Assay results as given in patent US20250144126A1, “APPLICATION OF 5'-MONOPHOSPHATE NUCLEOTIDE AND MIXTURE THEREOF IN PREPARATION OF DRUG OR FOOD FOR IMPROVING MITOCHONDRIAL FUNCTION” (priority 2021, published 2025).
“Also recorded” adds a separate entry of the source.

System: H2O2-induced senescent mouse embryonic fibroblasts NIH/3T3
Experiment: Seahorse xFe96 mitochondria stress detection experiment in H2O2-induced senescent cells
Type: cell-based
Conditions: 24 h incubation after 200 μmol/L H2O2 for 4 h; for mitochondrial basal respiration / mitochondrial oxygen consumption rate (OCR): vs blank and model control; for mitochondrial ATP production capability / mitochondrial maximum respiratory value / mitochondrial respiratory reserve: vs model control, P<0.05
Description: In this example, concentrations of the 5′-adenosine monophosphate and the 5′-disodium uridine obtained in Example 1 were 100 μmol/L and 200 μmol/L respectively, and were recorded as AMP 100 group and UMP 200 group, respectively. […] Model control group was a senescence cell model group intervened by hydrogen peroxide. Blank control group was a group free of mixture of 5′-adenosine monophosphate, 5′-disodium uridine and 5′-monophosphate nucleotide and without hydrogen peroxide intervention.
The cells used in the example were mouse embryonic fibroblasts NIH/3T3, which were purchased from Cell Bank of Chinese Academy of Sciences.
The cells were cultured in a DMEM high-sugar medium containing 1% penicillin/streptomycin and 10% fetal bovine serum in an incubator with 5% of CO2 at 37° C. under saturated humidity conditions. The establishment of the senescence cell model was as follows: After the cells grew to the wall of a culture vessel, different concentrations of hydrogen peroxide were used for intervention, where the concentrations of hydrogen peroxide were 50 μmol/L, 100 μmol/L, 200 μmol/L, 400 μmol/L, and 800 μmol/L. The medium containing hydrogen peroxide was removed after incubation for 4 hours, and a normal complete medium (DMEM high-sugar medium containing 1% penicillin/streptomycin and 10% fetal bovine serum) was added for incubation for 24 hours, then the cell activity of the cultured cells was detected by using a CCK-8 cell active kit, the expression of β-galactosidase was detected, and the expressions of the senescent marker p16INK4A and p21Waf1/Cipl were detected by western blot method.
In this example, the oxygen consumption rate (OCR), basal respiration, maximum respiratory value, ATP production capability and respiratory reserve of mitochondria were determined by using the Seahorse xFe96 (Agilent) mitochondria stress detection experiment. 20000 NIH/3T3 cells were inoculated in each well of a 96-well cell culture plate (Nunc, 165306) except the background wells at four corners. After overnight incubation and the cells grew to the wall of the culture plate, the cells were intervened by 200 μmol/L hydrogen peroxide for 4 hours, then the medium containing hydrogen peroxide was removed, and a normal complete medium containing nucleotides with different concentrations (DMEM high-sugar medium containing 1% of penicillin/streptomycin and 10% of fetal bovine serum, and the concentrations of 5′-adenosine monophosphate and 5′-disodium uridine were respectively 100 μmol/L and 200 μmol/L, and the concentration of the nucleotide mixture was 200 μmol/L) was added for incubation for 24 hours. A probe panel (xFe96 FluxPak, Agilent, 102353-100) was hydrated with a hydration solution (XF Calibrant Solution, Agilent, 100840-000) one day in advance, and then was placed in a non-CO2 incubator for incubation for at least 12 hours at 37° C. The experimental culture solution was prepared on the day of the experiment, 1 mL of 2.5 mM glucose (Glucose, Sigma, G7528), 1 mL of 2 mM glutamine (L-glutamine, Sigma, G8540), and 1 mL of 1 mM sodium pyruvate (Sodium pyruvate, Sigma, S8636) were added to 100 mL of base medium (Seahorse XF Basemedium, Agilent, 102353-100), and the pH of the culture solution was adjusted to 7.4±0.05 with 1N of NaOH. The culture solution of the cell culture plate was replaced with the experimental culture solution, 40 μL/well of the original medium was removed from the cell culture plate, then 160 μL/well of the experimental culture solution was added into the cell culture plate for dilution, and then 160 μL of the mixed culture solution was sucked out; the process was repeated for 2-3 times, finally the volume of the experimental culture solution in each well was 175 μL, and the cell culture plate was stood for 1 hour at 37° C.

## Nc1ncnc2c1ncn2[C@@H]1O[C@H](COP(=O)(O)O)[C@@H](O)[C@H]1O [AMP, 5′-adenosine monophosphate]
100 μmol/L
  mitochondrial basal respiration: returned to normal level
  mitochondrial oxygen consumption rate (OCR): returned to normal level
  mitochondrial ATP production capability: significantly increased
  mitochondrial maximum respiratory value: significantly increased
  mitochondrial respiratory reserve: significantly increased

## Nc1ccn([C@@H]2O[C@H](COP(=O)(O)O)[C@@H](O)[C@H]2O)c(=O)n1 [CMP, 5′-cytidine monophosphate]
200 μmol/L
  mitochondrial basal respiration: increased and significantly lower than that in the nucleotide mixture group; also recorded: little effect
  mitochondrial ATP production capability: increased (P<0.05) but significantly lower than that in the nucleotide mixture group; also recorded: little effect
  mitochondrial maximum respiratory value: increased (P<0.05) but significantly lower than that in the nucleotide mixture group; also recorded: little effect

## Nc1nc2c(ncn2[C@@H]2O[C@H](COP(=O)([O-])[O-])[C@@H](O)[C@H]2O)c(=O)[nH]1.[Na+].[Na+] [GMP, 5′-disodium guanylate]
200 μmol/L
  mitochondrial ATP production capability: increased (P<0.05) but significantly lower than that in the nucleotide mixture group; also recorded: little effect
  mitochondrial maximum respiratory value: increased (P<0.05) but significantly lower than that in the nucleotide mixture group; also recorded: little effect
  mitochondrial respiratory reserve: increased (P<0.05) but significantly lower than that in the nucleotide mixture group; also recorded: little effect

## O=c1ccn([C@@H]2O[C@H](COP(=O)([O-])[O-])[C@@H](O)[C@H]2O)c(=O)[nH]1.[Na+].[Na+] [UMP, 5′-disodium uridine]
200 μmol/L
  mitochondrial basal respiration: significantly higher than that of the model control group; also recorded: returned to normal level
  mitochondrial oxygen consumption rate (OCR): returned to normal level
  mitochondrial ATP production capability: significantly increased
  mitochondrial maximum respiratory value: significantly increased
  mitochondrial respiratory reserve: significantly increased
